According to paper PMC10681895, “Dasatinib anhydrate containing oral formulation improves variability and bioavailability in humans” (Leukemia, 2023):
Where two headings read alike, the source gives them in different places. Blank lines part the entries; values can stand above or below the compound they belong to.

Experiments:
[1] = Bioavailability of anhydrous vs monohydrate form of dasatinib by gastric pH (data on file); assay type: in vivo, human
[2] = Drug-drug interaction study with omeprazole (staggered approach), pharmacokinetics; conditions: human, plasma, oral
Method: The DDI study was a single-sequence, 2-period, open-label study to investigate the effects of an oral proton pump inhibitor (PPI) omeprazole (Helicid 40 mg capsules, Zentiva, k.s., Czech Republic) administered QD for 5 days on the pharmacokinetics (PK) of T when ingested 2 h prior to the last omeprazole dose (‘staggered approach’). All subjects received T alone in the first period and T under pre-treatment with omeprazole in the second period.
Subjects fasted for at least 10 h prior to dosing and no food was provided until 4 h after the dose, after which a standardized breakfast was served. […]
The plasma concentration-time profiles and pharmacokinetic parameters determined for dasatinib included maximum plasma concentration (Cmax), time to reach the maximum plasma concentration (Tmax), area under the plasma concentration-time curve from time zero to the time of the last quantifiable concentration (AUC0-t, measured by linear trapezoid method), AUC from time zero to infinity (AUC0-inf), terminal elimination half-life (thalf). The pharmacokinetic parameters were determined by non-compartmental methods using Phoenix WinNonlin, version 8.1 (Certara, USA).
Arithmetic mean and standard deviation were summarized for the main pharmacokinetic parameters. For Tmax, median and range were determined. […]

[3] = Intrinsic dissolution rate, rotation disk (Sirius inForm), acetate/phosphate buffer pH 4.5; conditions: for intrinsic dissolution rate: acetate buffer pH 4.5, 37 °C, 100 rpm
[4] = set-up: method as in PMID 19395585; conditions: cited from earlier work
[5] = Safety and tolerability, drug-drug interaction study (adverse events, CTC grade); assay type: in vivo, human; conditions: after dasatinib alone
Method: Safety was evaluated through assessment of adverse events, clinical and laboratory test results, physical examination, and concomitant medication usage.

[6] = cited from earlier work
[7] = system: non-small-cell lung carcinoma; set-up: method as in PMID 25246385; conditions: cited from earlier work
[8] = set-up: method as in PMID 15032311, PMID 15568890; conditions: oral; cited from earlier work
[9] = without PPI or H2-receptor antagonists

- increase of bioavailability compared with monohydrate form ([1]; normogastric population): approximately 20%
- fold higher bioavailability compared with monohydrate form ([1]; subjects with gastric pH >4 (data on file)): about 3.5 fold
- Tmax [2]: 1.25 h
- Tmax ([2]; 110.6 mg): 0.83 h
- fold higher intrinsic dissolution rate compared to monohydrate form ([3]; acetate buffer pH 4.5): more than 80 fold
- intrinsic dissolution rate ([3]; listed as Anhydrous polymorph of dasatinib): 1606 mcg/min/cm^2
- fold difference in aqueous solubility compared with monohydrate form ([3]; pH of 4.5): > 80 fold
SMILES: Cc1nc(Nc2ncc(C(=O)Nc3c(C)cccc3Cl)s2)cc(N2CCN(CCO)CC2)n1 [dasatinib anhydrate, dasatinib]

- intrinsic dissolution rate ([3]; listed as monohydrate form): 19 mcg/min/cm^2
SMILES: Cc1nc(Nc2ncc(C(=O)Nc3c(C)cccc3Cl)s2)cc(N2CCN(CCO)CC2)n1 [dasatinib monohydrate, dasatinib]
- solubility ([4]; pH 2.6): 18400 µg/mL
- solubility ([4]; pH 4.28): 205 µg/mL
- solubility ([4]; pH 6.99): < 1 µg/mL

SMILES: Cc1nc(Nc2ncc(C(=O)Nc3c(C)cccc3Cl)s2)cc(N2CCN(CCO)CC2)n1 [dasatinib]
- Chills, number of adverse effects ([5]; CTC Grade 1): 1
- Fever, number of adverse effects ([5]; CTC Grade 1): 0
- Headache, number of adverse effects ([5]; CTC Grade 1): 1
- Nausea, number of adverse effects ([5]; CTC Grade 1): 3
- Neck exanthema, number of adverse effects ([5]; CTC Grade 1): 0
- Palmar exanthema, number of adverse effects ([5]; CTC Grade 1): 0
- Vomiting, number of adverse effects ([5]; CTC Grade 1): 1
- Weakness, number of adverse effects ([5]; CTC Grade 1): 2
- Chills, number of adverse effects ([5]; CTC Grade 2): 0
- Fever, number of adverse effects ([5]; CTC Grade 2): 1
- Headache, number of adverse effects ([5]; CTC Grade 2): 6
- Nausea, number of adverse effects ([5]; CTC Grade 2): 1
- Neck exanthema, number of adverse effects ([5]; CTC Grade 2): 1
- Palmar exanthema, number of adverse effects ([5]; CTC Grade 2): 1
- Vomiting, number of adverse effects ([5]; CTC Grade 2): 0
- Weakness, number of adverse effects ([5]; CTC Grade 2): 0
- decrease of AUC ([6]; co-administration of dexamethasone, according to the label): approximately 25%
- AUC decrease ([6]; co-administration with antacids): ~ 55%
- prevention of dasatinib AUC decrease induced by rabeprazole ([6]; co-administration with betaine hydrochloride): 78%
- AUC decrease ([6]; co-administration with famotidine): ~ 60%
- reduction in dasatinib bioavailability ([6]; dasatinib administered 22 h after the last dose of the PPI): > 40%

SMILES: C#Cc1cccc(Nc2ncnc3cc(OCCOC)c(OCCOC)cc23)c1 [erlotinib]
- median progression free survival ([7]; with co-administration of PPI or H2-receptor antagonists, p < 0.001): 1.4 months
- median overall survival ([7]; with co-administration of PPI or H2-receptor antagonists, p = 0.003): 12.9 months
- median overall survival [7, 9]: 16.8 months
- median progression free survival [7, 9]: 2.3 months

SMILES: O=C1NC(=O)C(c2ccccc2)(c2ccccc2)N1 [phenytoin]
- absolute bioavailability [8]: > 90%
